# Source: PMC12248599, “Exploring the Bioavailability of Red Grape Skin Extract Polyphenols: A Caco-2 Cell Model Study” (Foods, 2025)
# “And” between values parts separate entries of the source, which are not always exact repeats. Identical values can stand only once. Marks after values point to notes of the source that are not given here.
# Tests used:
# [1] = Caco-2 monolayer transport (bioavailability) study, AB and BA directions; format: in vitro ADME, Homo sapiens; settings: human
# Protocol: (§1) A reversed phase C18 column (Luna 5 μm C18(2) 100 Å, LC Column 250 × 4.6 mm, Phenomenex) was used to separate the polyphenols at a flow rate of 0.7 mL/min with an injection volume of 60 µL. The detection was carried out at 520 nm for anthocyanins (M3G, D3G and Pet3G), at 328 nm for CA, at 356 nm for flavonols (Q3G, K3Gal and K3G) and at 280 nm for GA and SA. The mobile phases were (A) acetonitrile 100% and (B) water 0.1% trifluoroacetic acid (v/v). The gradient was programmed as follows: 10% A 0 min, 10–80% A (0–20 min), 80–100% A (20–25 min), 100% A (25–30 min); 10% A (30–35 min) and 10% A (35–40 min). Every polyphenol was quantified using the corresponding reference standard calibration curve. Each of the quantified phenolic compound concentration was expressed as mg/mL
# (§2) For the transport experiment Caco-2 cells were cultured at a density of 4 × 10^4 cells/cm^2 in Transwell inserts (12 mm i.d., 1.12 cm^2 growth area, 0.4 µm mean pore size polycarbonate membranes, Corning Inc., Milwaukee, WI, USA) placed in 12-well plates. Caco-2 cells were grown in DMEM in an incubator at 37 °C in a humidified atmosphere containing 5% CO2.
# (§3) Bioavailability studies were performed in triplicate after 21 days of cell growth. Only inserts with stable TEER values higher than ≥300 Ω cm^2 were considered acceptable to perform the bioavailability study. For that purpose, DMEM media was removed, the monolayer was washed with PBS and HBSS was supplied to the cells.
# (§4) Likewise, the GSE stock solution was diluted in HBSS medium to prepare GSE solutions S1 and S2. GSE solutions S1 and S2 had concentrations of 15 mg/mL and 22 mg/mL, respectively. These concentrations were established considering previous studies with grape pomace extracts that concluded that intestinal concentrations of 1–2% (w/v) show potential bioactivities and are safe to be used as a food ingredient.
# (§5) The apical side represents the intestinal lumen and the basolateral side represents the bloodstream. Each sample (100 µL) was immediately acidified with 1M HCl to a final concentration of 0.007 M and subsequently frozen at −20 °C until analysis by HPLC (according to the method described in Section 2.5). Each experiment was carried out on 3 individual wells. The transport efficiency (TE) percentage was calculated according to Equation (2):Transport efficiency (%) = (C/C0) × 100(2) where, C is the polyphenol concentration at the acceptor side over time and C0 is the initial concentration at the donor side. TE values were calculated for the nine polyphenols identified in the grape skin extract.
# (§6) The apparent permeability coefficient (Papp) of the polyphenols in GSE was calculated for apical to basolateral side (AB) and basolateral to apical side (BA) flux studies according to Equation (3):Papp (cm/s) = (dQ/dt) × (VR/AC0)(3) where, dQ/dt is the permeability rate which means the steady-state linear rate of change of concentration (mg/L) per second (s) at the acceptor side; A is the surface area of the cell monolayer (1.12 cm^2). C0 is the initial concentration at the donor side (mg/L) at t = 0 s and VR is the volume of the solution of the acceptor side (mL).
# (§7) The efflux ratio (ER) of the polyphenol was assessed by calculating the Equation (4):ER = Papp (BA)/Papp (AB)(4) where, Papp (BA) is the apparent permeability coefficient of the polyphenol from basolateral to apical side and Papp (AB) is the apparent permeability coefficient from apical to basolateral side. ER is a measure of the relative contributions of active and passive transport to bi-direction flux across the cell monolayer.
# Caco-2 cell monolayer = assay: as above; format: in vitro ADME, Homo sapiens; settings: for reduction in concentration on the apical (donor) side / reduction in concentration on the basolateral (donor) side: 0 to 180 min; for TE (%) transport efficiency: after 180 min
# Protocol: as §1, §2, §3, §4, §5, §6, §7
# [2] = AB experiment, S1 (15 mg/mL GSE)
# [3] = AB experiment, S2 (22 mg/mL GSE)
# [4] = AB experiment, acceptor side, S1 (15 mg/mL GSE)
# [5] = AB experiment, acceptor side, S2 (22 mg/mL GSE)
# [6] = AB experiment, donor side, S1 (15 mg/mL GSE)
# [7] = AB experiment, donor side, S2 (22 mg/mL GSE)
# [8] = BA experiment, S1 (15 mg/mL GSE)
# [9] = BA experiment, S2 (22 mg/mL GSE)
# [10] = BA experiment, acceptor side, S1 (15 mg/mL GSE)
# [11] = BA experiment, acceptor side, S2 (22 mg/mL GSE)
# [12] = BA experiment, donor side, S1 (15 mg/mL GSE)
# [13] = BA experiment, donor side, S2 (22 mg/mL GSE)
smiles,measurement,setting,value
"O=C(/C=C/c1ccc(O)c(O)c1)O[C@@H](C(=O)O)[C@@H](O)C(=O)O [CA, caftaric acid]","efflux ratio at 180 min, 15 mg/mL","[1]; Caco-2, Papp (BA)/Papp (AB), S1 (15 mg/mL GSE), read-out: ER (efflux ratio)",1.3
same,"efflux ratio at 180 min, 22 mg/mL","[1]; Caco-2, Papp (BA)/Papp (AB), S2 (22 mg/mL GSE), read-out: ER (efflux ratio)",1.4
same,efflux ratio at 180 min,"[1]; Caco-2, text statement, S1 and S2",> 1
same,"Papp A→B at 180 min, 15 mg/mL","[1]; Caco-2, apical to basolateral, S1 (15 mg/mL GSE)",74 ± 3 ×10⁻⁶ cm/s
same,"Papp A→B at 180 min, 22 mg/mL","[1]; Caco-2, apical to basolateral, S2 (22 mg/mL GSE)",51 ± 2 ×10⁻⁶ cm/s
same,"Papp B→A at 180 min, 15 mg/mL","[1]; Caco-2, basolateral to apical, S1 (15 mg/mL GSE)",93 ± 7 ×10⁻⁶ cm/s
same,"Papp B→A at 180 min, 22 mg/mL","[1]; Caco-2, basolateral to apical, S2 (22 mg/mL GSE)",73 ± 8 ×10⁻⁶ cm/s
same,reduction in concentration on the apical (donor) side,Caco-2 cell monolayer; [2],59 ± 4%
same,TE (%) transport efficiency,Caco-2 cell monolayer; [2],7 ± 1%
same,reduction in concentration on the apical (donor) side,Caco-2 cell monolayer; [3],44.1 ± 0.7%
same,TE (%) transport efficiency,Caco-2 cell monolayer; [3],4.4 ± 0.5% and 4.4 ± 0.4%
same,Basolateral Side 75 min,Caco-2 cell monolayer; [4],0.06 ± 0.01 ^b mg/L
same,Basolateral Side 90 min,Caco-2 cell monolayer; [4],"0.06 ± 0.01 ^b,c mg/L"
same,Basolateral Side 115 min,Caco-2 cell monolayer; [4],"0.06 ± 0.01 ^b,c mg/L"
same,Basolateral Side 180 min,Caco-2 cell monolayer; [4],0.07 ± 0.01 ^c mg/L
same,Basolateral Side 75 min,Caco-2 cell monolayer; [5],0.07 ± 0.01 ^b mg/L
same,Basolateral Side 90 min,Caco-2 cell monolayer; [5],"0.07 ± 0.01 ^b,c mg/L"
same,Basolateral Side 115 min,Caco-2 cell monolayer; [5],0.08 ± 0.01 ^b mg/L
same,Basolateral Side 180 min,Caco-2 cell monolayer; [5],0.08 ± 0.01 ^b mg/L
same,Apical Side 0 min,Caco-2 cell monolayer; [6],1.04 ± 0.08 mg/L and 1.04 ± 0.08 ^a mg/L
same,Apical Side 75 min,Caco-2 cell monolayer; [6],0.84 ± 0.07 ^b mg/L
same,Apical Side 90 min,Caco-2 cell monolayer; [6],0.67 ± 0.07 ^c mg/L
same,Apical Side 115 min,Caco-2 cell monolayer; [6],0.54 ± 0.07 ^d mg/L
same,Apical Side 180 min,Caco-2 cell monolayer; [6],0.43 ± 0.07 mg/L and 0.43 ± 0.07 ^d mg/L
same,Apical Side 0 min,Caco-2 cell monolayer; [7],1.82 ± 0.03 mg/L and 1.82 ± 0.03 ^a mg/L
same,Apical Side 75 min,Caco-2 cell monolayer; [7],1.54 ± 0.03 ^b mg/L
same,Apical Side 90 min,Caco-2 cell monolayer; [7],1.37 ± 0.02 ^c mg/L
same,Apical Side 115 min,Caco-2 cell monolayer; [7],1.16 ± 0.02 ^d mg/L
same,Apical Side 180 min,Caco-2 cell monolayer; [7],1.01 ± 0.01 mg/L and 1.01 ± 0.01 ^c mg/L
same,detection at the acceptor side,"Caco-2 cell monolayer; AB experiments, basolateral side",detected
same,reduction in concentration on the basolateral (donor) side,Caco-2 cell monolayer; [8],43.5 ± 0.4%
same,TE (%) transport efficiency,Caco-2 cell monolayer; [8],11.2 ± 0.8%
same,reduction in concentration on the basolateral (donor) side,Caco-2 cell monolayer; [9],22.6 ± 0.8%
same,TE (%) transport efficiency,Caco-2 cell monolayer; [9],8.7 ± 0.9%
same,Apical Side 75 min,Caco-2 cell monolayer; [10],0.08 ± 0.01 ^b mg/L
same,Apical Side 90 min,Caco-2 cell monolayer; [10],0.09 ± 0.01 ^c mg/L
same,Apical Side 115 min,Caco-2 cell monolayer; [10],0.10 ± 0.01 ^d mg/L
same,Apical Side 180 min,Caco-2 cell monolayer; [10],0.12 ± 0.01 ^c mg/L
same,Apical Side 75 min,Caco-2 cell monolayer; [11],"0.08 ± 0.01 ^a,b mg/L"
same,Apical Side 90 min,Caco-2 cell monolayer; [11],"0.10 ± 0.01 ^a,b,c mg/L"
same,Apical Side 115 min,Caco-2 cell monolayer; [11],"0.11 ± 0.01 ^b,c mg/L"
same,Apical Side 180 min,Caco-2 cell monolayer; [11],0.12 ± 0.01 ^c mg/L
same,Basolateral Side 0 min,Caco-2 cell monolayer; [12],1.04 ± 0.03 ^a mg/L
same,Basolateral Side 75 min,Caco-2 cell monolayer; [12],0.91 ± 0.02 ^b mg/L
same,Basolateral Side 90 min,Caco-2 cell monolayer; [12],0.80 ± 0.02 ^c mg/L
same,Basolateral Side 115 min,Caco-2 cell monolayer; [12],"0.70 ± 0.02 ^c,d mg/L"
same,Basolateral Side 180 min,Caco-2 cell monolayer; [12],0.59 ± 0.02 ^c mg/L
same,Basolateral Side 0 min,Caco-2 cell monolayer; [13],1.4 ± 0.1 ^a mg/L
same,Basolateral Side 75 min,Caco-2 cell monolayer; [13],1.3 ± 0.1 ^b mg/L
same,Basolateral Side 90 min,Caco-2 cell monolayer; [13],1.23 ± 0.09 ^c mg/L
same,Basolateral Side 115 min,Caco-2 cell monolayer; [13],1.15 ± 0.08 ^d mg/L
same,Basolateral Side 180 min,Caco-2 cell monolayer; [13],1.08 ± 0.08 ^c mg/L
